According to US4048431A, “Alkylated derivatives of antibiotic BM123γ” (American Cyanamid Company, priority 1975, dated 1977):

Test system: Escherichia coli US311
Assay: in vivo protection of mice against lethal Escherichia coli US311 infection (single subcutaneous dose)
Parameters: species or system Escherichia coli US311 in Carworth Farms CF-1 mice
Conditions: Carworth Farms CF-1 mice, about 20 gm., infected intraperitoneally with lethal dose of E. coli US311 (10^-3 TSP dilution of 5 hour TSP blood culture)
Protocol: These new substances show high in vivo antibacterial activity in mice against Escherichia coli US311 when administered by a single subcutaneous dose to groups of Carworth Farms CF-1 mice, weight about 20 gm., infected intraperitoneally with a lethal dose of this bacteria in a 10^- 3 trypticase soy broth TSP dilution of a 5 hour TSP blood culture. In Table VI below is set forth the in vivo activity of typical products of this invention (prepared from the indicated carbonyl reagents) against Escherichia coli US311 in mice. The activity is expressed in terms of the ED50 or the dose in mg./kg. of body weight required to protect 50% of the mice against E. coli.

Substance	ED50 (dose required to protect 50% of the mice against E. coli)
2-acetamido-1-methylpropyl-BM123γ	0.50 mg./kg. of body weight
1-methyl-2-cyclopenten(-2-)-yl-ethyl-BM123γ	< 0.12 mg./kg. of body weight
2,4,4-trimethylcyclopentyl-BM123γ	0.3 mg./kg. of body weight
1,3-dimethylbutyl-BM123γ	< 0.12 mg./kg. of body weight
1-methyl-2-(3-chlorophenyl)ethyl-BM123γ	0.38 mg./kg. of body weight
3-quinuclidinyl-BM123γ	0.39 mg./kg. of body weight
1,3-dimethylbuten(-2-)yl-BM123γ	0.3 mg./kg. of body weight
1,2-dimethyl-3-hydroxypropyl-BM123γ	0.12 mg./kg. of body weight
1-methyl-2-(β-indolyl)ethyl-BM123γ	0.12 mg./kg. of body weight
cyclopentyl-BM123γ	0.25 mg./kg. of body weight
1-benzyl-4-piperidyl-BM123γ	0.18 mg./kg. of body weight
1-methyl-2-hydroxypropyl-BM123γ	0.37 mg./kg. of body weight
1-ethylbutyl-BM123γ	0.39 mg./kg. of body weight
1-ethyloctyl-BM123γ	0.25 mg./kg. of body weight
1-ethylhexyl-BM123γ	0.18 mg./kg. of body weight
2-(tert-butylcarbamoyl)-1-methyl-ethyl-BM123γ	0.38 mg./kg. of body weight
1-methyl-4-hydroxybutyl-BM123γ	0.18 mg./kg. of body weight
1-cyclopentylethyl-BM123γ	0.18 mg./kg. of body weight

Substance	ED50 (dose required to protect 50% of the mice against E. coli)
2-(1-cyclohexen)cyclohexyl-BM123γ	0.19 mg./kg. of body weight
1-methylheptyl-BM123γ	0.38 mg./kg. of body weight
1-[(dimethoxyphosphinyl)methyl]-hexyl-BM123γ	0.3 mg./kg. of body weight
(2-carboxy-1-carboxymethyl)ethyl-BM123γ	0.5 mg./kg. of body weight
1-methyl-hexen-4-yl-BM123γ	0.18 mg./kg. of body weight
1-methyl-2-acetylethyl-BM123γ	1.5 mg./kg. of body weight
2-ethylidenecyclohexyl-BM123γ	0.12 mg./kg. of body weight
1-methyl-2-(2-methoxyphenyl)ethyl-BM123γ	0.7 mg./kg. of body weight
trans-2-methyl-2-pentenyl-BM123γ	0.18 mg./kg. of body weight
1-cyclopropylethyl-BM123γ	0.25 mg./kg. of body weight
1-methylbutyl-BM123γ	< 0.12 mg./kg. of body weight
3-methyl-6-isopropylcyclohexyl-BM123γ	0.38 mg./kg. of body weight
1-methyl-4-chlorobutyl-BM123γ	0.37 mg./kg. of body weight
1-methyl-4-piperidyl-BM123γ	0.75 mg./kg. of body weight
3-methylcyclopentyl-BM123γ	0.25 mg./kg. of body weight
2-ethyl-2-(3,4-dimethoxyphenyl)ethyl-BM123γ	1.0 mg./kg. of body weight
adamantyl-2-BM123γ	0.25 mg./kg. of body weight
